From patent US20250387438A1, “USE OF […] SP. OR COMPOSITION COMPRISING SAME IN PREVENTION OR TREATMENT OF TUMORS, AND DRUG COMPRISING SAME” (Moon (Guangzhou) Biotech Co., Ltd., priority 2022, published 2025)

What was measured:
[1] = test system: Christensenella sp. MNH04863; assay: Antibiotic susceptibility testing by disk diffusion method; assay type: cell-based; settings: for Inhibition Zone Diameter: against Christensenella sp. MNH04863
From the text: The disk diffusion method was used to conduct the antibiotic susceptibility testing of Christensenella sp. MNH04863. Christensenella sp.

[2] = test system: KPC mouse pancreatic cancer cells; settings: in vivo
[3] = test system: KPC mouse pancreatic cancer cells; assay: Pancreatic cancer mouse homologous tumor model, combination with gemcitabine

Row | Compound | Susceptibility of Christensenella sp. MNH04863 to the antibiotic [1] | Inhibition Zone Diameter [1] | other results
1 | CC1(C)S[C@@H]2[C@H](NC(=O)[C@H](N)c3ccccc3)C(=O)N2[C@H]1C(=O)O [Ampicillin (AMP), Ampicillin] | resistance | 0 mm | –
2 | CO/N=C(\C(=O)N[C@@H]1C(=O)N2C(C(=O)O)=C(CSc3nc(=O)c(=O)[nH]n3C)CS[C@H]12)c1csc(N)n1 [Ceftriaxone (CTR), Ceftriaxone] | sensitive | 37.32 mm | –
3 | O=C(N[C@H](CO)[C@H](O)c1ccc([N+](=O)[O-])cc1)C(Cl)Cl [Chloramphenicol (C), Chloramphenicol] | sensitive | 38.88 mm | –
4 | O=C(O)c1cn(C2CC2)c2cc(N3CCNCC3)c(F)cc2c1=O [Ciprofloxacin (CIP), Ciprofloxacin] | resistance | 0 mm | –
5 | CC[C@H]1OC(=O)[C@H](C)[C@@H](O[C@H]2C[C@@](C)(OC)[C@@H](O)[C@H](C)O2)[C@H](C)[C@@H](O[C@@H]2O[C@H](C)C[C@H](N(C)C)[C@H]2O)[C@](C)(O)C[C@@H](C)C(=O)[C@H](C)[C@@H](O)[C@]1(C)O [Erythromycin (E), Erythromycin] | sensitive | 16.82 mm | –
6 | Nc1ccn([C@@H]2O[C@H](CO)[C@@H](O)C2(F)F)c(=O)n1 [Gemcitabine] | – | – | Number of Euthanized mice ([2]; C57BL/6J): 2; Average Weight Before Dissection [2]: 21.13 g; Average Dissected Tumor Weight ([3]; experimental endpoint): 0.68 g; Experimental Endpoint TGI ([3]; vs control): 40.0%
7 | CCC[C@@H]1C[C@@H](C(=O)N[C@@H]([C@H]2O[C@H](SC)[C@H](O)[C@@H](O)[C@H]2O)[C@@H](C)O)N(C)C1 [Lincomycin (MY), Lincomycin] | sensitive | 29.86 mm | –
8 | CN(C)[C@@H]1C(O)=C(C(N)=O)C(=O)[C@@]2(O)C(O)=C3C(=O)c4c(O)cccc4[C@@](C)(O)[C@H]3C[C@@H]12 [Tetracycline (TET), Tetracycline] | – | 46.11 mm | –
9 | Compound Sulfamethoxazole [Compound Sulfamethoxazole (SXT)] | resistance | 0 mm | –
10 | Gentamycin [Gentamycin (GEN)] | resistance | 0 mm | –
11 | Penicillin [Penicillin (PEN)] | sensitive | 43.06 mm | –
